Reference: patent US9452226B2, “Rodent model of central neuropathic pain caused by dorsal root entry zone avulsion at T13” (priority 2008, dated 2016)
Entries after “also recorded” stand apart in the source; their conditions may differ.

Tests used:
[1] = tested on: rats having DREZs avulsed at T13/L1; assay: von Frey allodynia test in T13/L1 DREZ avulsion rat model, intrathecal ibudilast (Example 2); type: in vivo; details: intrathecally daily in corn oil carrier; unilateral (FIG. 2) or bilateral (FIG. 3) DREZ avulsion; vs sham controls receiving corn oil
Experimental: Rats were anesthetized using isoflurane. Under aseptic condition, the skin was incised in the midline along the posterior thoracolumbar region. The paravertebral muscles were retracted laterally to expose the posterior aspect of the spinal laminae. Laminectomies were performed and the dura mater then incised along the midline to expose the dorsal rootlets 10 of T13 and L1. The dorsal rootlets of T13 and L1 were then avulsed out of the spinal cord 15 on the left side using micronstrumentation 5 (see FIG. 4B). A visual defect 25 in pia and dorsal cord where the rootlets 10 were avulsed can be seen in FIG. 4B. The grey matter 30 of the spinal cord 15 is also shown. Hemostasis was obtained and a layer of gelfoam placed over the dura. The wound was closed in layers. Perioperative antibiotics were administered in prophylaxis against infection. Subject rats were tested for allodynia of the hindpaws with the von Frey hair test, beginning day one post surgery and continuing daily over the subsequent four weeks. Rat animal model was generated similar to above. In one experiment, DREZ avulsion was unilateral (FIG. 2). In one experiment, DREZ avulsion was bilateral (FIG. 3). Ibudilast was delivered intrathecally daily in a corn oil carrier, with sham controls receiving only the corn oil.

[2] = tested on: rats with unilateral T13/L1 dorsal root avulsion; assay: von Frey test after unilateral T13/L1 dorsal root avulsion, daily s.c. AV411 (Example 5); type: in vivo, rat
Experimental: The dorsal spinal cord was exposed by laminectomy at the T13/L1 spinal level. The T13 and L1 dorsal roots were each isolated, clamped at the dorsal root entry zone (DREZ) and briskly pulled out of the spinal cord as described above. AV411 was administered to animals avulsed at the T13 and L1 dorsal root entry zones. The compound AV411 was administered to animals subject to the T13 and L1 hind paws. […] The reversal begins after 5-6 injections and continues to reverse behavior until day 33. The contralateral paw began to resolve at day 28 and the ipsilateral paw was still sensitive at day 33. […] Response thresholds on the von Frey test were recorded prior to and across a timecourse after avulsion surgery. Beginning on Day 12 post-surgery, rats (n=4/group) received once daily s.c. injections of either the glial activation inhibitor AV411/Ibudilast (Sigma; 5-mg/kg or 10-mg/kg) or equivolume vehicle (corn oil; 0.5-ml/kg). Daily drug treatment and intermittent behavioral testing continued through 33 days after surgery.

SMILES: CC(C)C(=O)c1c(C(C)C)nn2ccccc12 [AV411, 2-methyl-1-(2-propan-2-ylpyrazolo[1,5-a]pyridin-3-yl)propan-1-one]
- effect on allodynia in the model [1]: decreases allodynia
- difference between the 5 mg and 10 mg dose ([2]; allodynia reversal, daily s.c.): not differences
- reversal of behavior continues until ([2]; days after surgery, daily s.c. treatment through day 33): 33 days
- effect on allodynia induced by avulsion (von Frey response thresholds) ([2]; once daily s.c. 5-mg/kg or 10-mg/kg from Day 12 post-surgery through day 33, vs corn oil vehicle): reversed allodynia; also recorded: reverses bilateral allodynia
- effect of administering AV411 on hind paw mechanical allodynia as printed ([2]; unilateral T13/L1 dorsal root avulsion, lasting upwards of 1.5 months): induces bilateral mechanical allodynia
